Test results taken from patent publication EP4707284A1, “HETEROCYCLIC COMPOUND AND USE THEREOF” (Otsuka Pharmaceutical Co., Ltd., priority 2023, dated 2024).

Format: physicochemical
Conditions: 37°C, 60 minutes; for Concentration of brexpiprazole formed / Concentration of evaluation compound decreased: Tris-hydrochloric acid buffer (pH 7.5) 50 mmol/L, magnesium chloride 5 mmol/L, evaluation compound 1 µmol/L, average of duplicate; for stability in the buffer / conversion to brexpiprazole (in words): Tris-hydrochloric acid buffer (pH 7.5)
In short: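 Conversion of compounds to brexpiprazole measured in buffer at 37°C, in duplicate: compound added after 3 min pre-incubation of reaction solution, and reaction stopped at 0 or 60 min with acetonitrile/isopropanol (4:1) containing internal standards. Quantified against calibration samples at 0.01, 0.1 and 1 µmol/L.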

Row | Structure (SMILES) | Concentration of brexpiprazole formed | Concentration of evaluation compound decreased | stability in the buffer / conversion to brexpiprazole (in words)
1 | CCCOP(=O)([O-])OC[N+]1(CCCCOc2ccc3ccc(=O)[nH]c3c2)CCN(c2cccc3sccc23)CC1 [EX 88] | 0 nM | -10 nM | 
2 | CC(C)OC(=O)[C@@H](C)OP(=O)([O-])OC[N+]1(CCCCOc2ccc3ccc(=O)[nH]c3c2)CCN(c2cccc3sccc23)CC1 [EX 105] | 0 nM | 50 nM | 
3 | O=c1ccc2ccc(OCCCC[N+]3(COP(=O)([O-])O)CCN(c4cccc5sccc45)CC3)cc2[nH]1 [EX 1, (4-(benzo[b]thiophen-4-yl)-1-((4-((2-oxo-1,2-dihydroquinolin-7-yl)oxy)butyl)piperazin-1-ium-1-yl)methyl hydrogen phosphate] | 0 nM | 0 nM | 
4 | COCCCCOC(=O)OCOP(=O)([O-])OC[N+]1(CCCCOc2ccc3ccc(=O)[nH]c3c2)CCN(c2cccc3sccc23)CC1 [EX 36] | 0 nM | -40 nM | 
5 | CCOCCOCCOC(=O)OCOP(=O)([O-])OC[N+]1(CCCCOc2ccc3ccc(=O)[nH]c3c2)CCN(c2cccc3sccc23)CC1 [EX 134] | 0 nM | 70 nM | 
6 | CCCC(=O)OCOP(=O)([O-])OC[N+]1(CCCCOc2ccc3ccc(=O)[nH]c3c2)CCN(c2cccc3sccc23)CC1 [EX 121] | 0 nM | 90 nM | 
7 | COCCCOC(=O)OCOP(=O)([O-])OC[N+]1(CCCCOc2ccc3ccc(=O)[nH]c3c2)CCN(c2cccc3sccc23)CC1 [EX 139] | 0 nM | 120 nM | 
8 | CC(C)COP(=O)([O-])OC[N+]1(CCCCOc2ccc3ccc(=O)[nH]c3c2)CCN(c2cccc3sccc23)CC1 [EX 90] | 0 nM | -30 nM | 
9 | CC(C)(C)OC(=O)NC(C)(C)C(=O)OCOP(=O)([O-])OC[N+]1(CCCCOc2ccc3ccc(=O)[nH]c3c2)CCN(c2cccc3sccc23)CC1 [EX 128] | 0 nM | -30 nM | 
10 | CC(C)OCCOC(=O)OCOP(=O)([O-])OC[N+]1(CCCCOc2ccc3ccc(=O)[nH]c3c2)CCN(c2cccc3sccc23)CC1 [EX 133] | 0 nM | 140 nM | 
11 | O=c1ccc2ccc(OCCCC[N+]3(COP(=O)([O-])OC/C=C/CO)CCN(c4cccc5sccc45)CC3)cc2[nH]1 [EX 42] | 0 nM | 30 nM | 
12 | Cc1cccc(C(=O)OCCCCCCOP(=O)([O-])OC[N+]2(CCCCOc3ccc4ccc(=O)[nH]c4c3)CCN(c3cccc4sccc34)CC2)n1 [EX 59] | 0 nM | 50 nM | 
13 | CCC(=O)OC[N+]1(CCCCOc2ccc3ccc(=O)[nH]c3c2)CCN(c2cccc3sccc23)CC1.[I-] [REX 5, 4-(Benzo[b]thiophen-4-yl)-1-(4-((2-oxo-1,2-dihydroquinolin-7-yl)oxy)butyl)-1-((propionyloxy)methyl)piperazin-1-ium iodide, reference compound] | 260 nM | 200 nM | clearly degraded to brexpiprazole
14 | CC(=O)OCCCCCCOP(=O)([O-])OC[N+]1(CCCCOc2ccc3ccc(=O)[nH]c3c2)CCN(c2cccc3sccc23)CC1 [EX 101] | 0 nM | 80 nM | 
15 | CN1CCN(CCOP(=O)([O-])OC[N+]2(CCCCOc3ccc4ccc(=O)[nH]c4c3)CCN(c3cccc4sccc34)CC2)CC1 [EX 117] | 0 nM | 50 nM | 
16 | O=c1ccc2ccc(OCCCC[N+]3(COP(=O)([O-])OC[C@H]4CC[C@H](CO)CC4)CCN(c4cccc5sccc45)CC3)cc2[nH]1 [EX 86] | 0 nM | 50 nM | 
17 | O=c1ccc2ccc(OCCCC[N+]3(COP(=O)([O-])OC/C=C\CO)CCN(c4cccc5sccc45)CC3)cc2[nH]1 [EX 43] | 0 nM | 120 nM | 
18 | CC(C)COCCOP(=O)([O-])OC[N+]1(CCCCOc2ccc3ccc(=O)[nH]c3c2)CCN(c2cccc3sccc23)CC1 [EX 51] | 0 nM | 50 nM | 
19 | C[C@H](NP(=O)([O-])OC[N+]1(CCCCOc2ccc3ccc(=O)[nH]c3c2)CCN(c2cccc3sccc23)CC1)C(N)=O [EX 158] | 0 nM | 70 nM | 
20 | COCCOCOCCCCOP(=O)([O-])OC[N+]1(CCCCOc2ccc3ccc(=O)[nH]c3c2)CCN(c2cccc3sccc23)CC1 [EX 53] | 0 nM | 60 nM | 

Row | Structure (SMILES) | Concentration of brexpiprazole formed | Concentration of evaluation compound decreased | stability in the buffer / conversion to brexpiprazole (in words)
21 | O=c1ccc2ccc(OCCCC[N+]3(COP(=O)([O-])OCCCCCCCCCO)CCN(c4cccc5sccc45)CC3)cc2[nH]1 [EX 46] | 0 nM | 40 nM | 
22 | Cc1ncccc1C(=O)OCOP(=O)([O-])OC[N+]1(CCCCOc2ccc3ccc(=O)[nH]c3c2)CCN(c2cccc3sccc23)CC1 [EX 81] | 0 nM | -30 nM | 
23 | CCOC(=O)[C@H](C)NP(=O)([O-])OC[N+]1(CCCCOc2ccc3ccc(=O)[nH]c3c2)CCN(c2cccc3sccc23)CC1 [EX 156] | 0 nM | 170 nM | 
24 | COc1ccc(C(=O)OCCCCCCOP(=O)([O-])OC[N+]2(CCCCOc3ccc4ccc(=O)[nH]c4c3)CCN(c3cccc4sccc34)CC2)cc1 [EX 58] | 0 nM | 40 nM | 
25 | CCC(CC)COC(=O)[C@@H](C)OP(=O)([O-])OC[N+]1(CCCCOc2ccc3ccc(=O)[nH]c3c2)CCN(c2cccc3sccc23)CC1 [EX 108] | 0 nM | 80 nM | 
26 | O=C(OCCCCCCOP(=O)([O-])OC[N+]1(CCCCOc2ccc3ccc(=O)[nH]c3c2)CCN(c2cccc3sccc23)CC1)c1ccc([N+](=O)[O-])cc1 [EX 85] | 0 nM | 40 nM | 
27 | CCCCOP(=O)([O-])OC[N+]1(CCCCOc2ccc3ccc(=O)[nH]c3c2)CCN(c2cccc3sccc23)CC1 [EX 89] | 0 nM | -70 nM | 
28 | CCCCOCCOCCOCCOC(=O)OCOP(=O)([O-])OC[N+]1(CCCCOc2ccc3ccc(=O)[nH]c3c2)CCN(c2cccc3sccc23)CC1 [EX 138] | 0 nM | 90 nM | 
29 | O=c1ccc2ccc(OCCCC[N+]3(COP(=O)([O-])OCCCCCCO)CCN(c4cccc5sccc45)CC3)cc2[nH]1 [EX 44] | 0 nM | -50 nM | 
30 | O=c1ccc2ccc(OCCCC[N+]3(COP(=O)([O-])OCCN4CCC(F)(F)CC4)CCN(c4cccc5sccc45)CC3)cc2[nH]1 [EX 119] | 0 nM | 140 nM | 
31 | CC(C)OCCOCCOCCOC(=O)OCOP(=O)([O-])OC[N+]1(CCCCOc2ccc3ccc(=O)[nH]c3c2)CCN(c2cccc3sccc23)CC1 [EX 137] | 0 nM | 90 nM | 
32 | CCCCOCCOP(=O)([O-])OC[N+]1(CCCCOc2ccc3ccc(=O)[nH]c3c2)CCN(c2cccc3sccc23)CC1 [EX 96] | 0 nM | 30 nM | 
33 | COCC(COC)OP(=O)([O-])OC[N+]1(CCCCOc2ccc3ccc(=O)[nH]c3c2)CCN(c2cccc3sccc23)CC1 [EX 56] | 0 nM | 40 nM | 
34 | O=c1ccc2ccc(OCCCC[N+]3(COP(=O)([O-])OCCOCC4CC4)CCN(c4cccc5sccc45)CC3)cc2[nH]1 [EX 52] | 0 nM | -40 nM | 
35 | O=C(OCOP(=O)([O-])OC[N+]1(CCCCOc2ccc3ccc(=O)[nH]c3c2)CCN(c2cccc3sccc23)CC1)OCC1CCOCC1 [EX 142] | 0 nM | -70 nM | 
36 | CC1(C)O[C@H]2[C@@H](O1)[C@@H](COP(=O)([O-])OC[N+]1(CCCCOc3ccc4ccc(=O)[nH]c4c3)CCN(c3cccc4sccc34)CC1)O[C@@H]1OC(C)(C)O[C@@H]12 [EX 100] | 0 nM | 50 nM | 
37 | CC1(C)OCC(COC(=O)CCCCC(=O)OCOP(=O)([O-])OC[N+]2(CCCCOc3ccc4ccc(=O)[nH]c4c3)CCN(c3cccc4sccc34)CC2)CO1 [EX 75] | 0 nM | 70 nM | 
38 | CCCCCC(=O)OC[N+]1(CCCCOc2ccc3ccc(=O)[nH]c3c2)CCN(c2cccc3sccc23)CC1.[I-] [REX 6, 4-(Benzo[b]thiophen-4-yl)-1-((hexanoyloxy)methyl)-1-(4-((2-oxo-1,2-dihydroquinolin-7-yl)oxy)butyl)piperazin-1-ium iodide, reference compound] | 210 nM | 220 nM | clearly degraded to brexpiprazole
39 | CCOC(=O)CCOC(=O)OCOP(=O)([O-])OC[N+]1(CCCCOc2ccc3ccc(=O)[nH]c3c2)CCN(c2cccc3sccc23)CC1 [EX 143] | 0 nM | 50 nM | 
40 | CCC(=O)OCOP(=O)([O-])OC[N+]1(CCCCOc2ccc3ccc(=O)[nH]c3c2)CCN(c2cccc3sccc23)CC1 [EX 120] | 0 nM | 50 nM | 
